# From US4060652A (priority 1976, dated 1977)
# Where two headings read alike, the source gives them in different places.
# What was measured:
# [1] = test system: nervomuscular conduction, ganglia, circulation; settings: cited from earlier work
# [2] = test system: nervomuscular conduction, anterior tibial muscle; test: Nervomuscular block in cats, indirect stimulation of anterior tibial muscle; type: in vivo
# Experimental: The preparation was studied in acute experiments on cats, rabbits, mice and pigeons, in experiments on phrenico-diaphragm preparations of rats, and also on the straight muscle of a frog abdomen. The properties of Tercuronium were compared with those of α-tubocurarin and pancuronium.
# (§1) Cats were narcotized (with chloralose, 50 mg per kg body weight, and urethane, 500 mg/kg, intraperitoneally) or decerebrated at the quadrigeminal bodies level. The lungs were ventilated artificially whenever necessary. Contractions of the anterior tibial muscle were recorded in isotonic concitions in response to electric stimulation of the peripheral part of n. peroneus with supramaximum pulses of 0.1 msec at a frequency of 0.1-100 Hz.
# [3] = test system: nervomuscular conduction, anterior tibial muscle; test: Neostigmin antagonism of nervomuscular block in cats; type: in vivo
# Experimental: as §1
# For example, even with a 5-fold dose of tercuronium, muscle contractility was restored already in 2 to 5 minutes following a single injection of neostigmin in a dose of 0.1 mg/kg, and in 15-20 minutes the recovery of the contactile function was complete.
# In the case of pancuronium and α-tubocurarin, the restoration within these short periods of time could only be attained with 2-3 fold doses of these muscle relaxants. If the dose of pancuronium was increased 4 to 5 times, weak contractions of the muscle were observed not sooner than in 9 to 10 minutes and the contraction was, restored completely only 30 minutes after the injection of neostigmin (six experiments). The restoration of muscle contractility is delayed even longer in the case of α-tubocurarin.
# rabbits = test: Head-drop test in non-narcotized rabbits; type: in vivo
# Experimental: In experiments (a total of twenty) on non-narcotized rabbits, the head-drop dose (HDD) was 0.022 ± 0.009 micromole/kg A complete blocking effect developed 1.5 to 2 minutes after administration of Tercuronium and persisted for 3 to 5 minutes. A few minutes later, the animal behaviour normalized. The same effect was attained with 0.18 ± 0.02 micromole/kg of α-tubocurarin (6 experiments) and 0.018 ± 0.001 mcM/kg of pancuronium (6 experiments). The time of onset and the duration of the blocking effect with all the three preparations were the same.
# [4] = Lethality by paralysis of respiratory muscles in rabbits; settings: rabbit, in vivo
# Excerpt: In another series of experiments, we determined the intravenous dose of the muscle relaxants that caused death of 50% of the animals due to paralysis of the respiratory muscles -- lethal dose 50% (LD50).
# albino mice = test: Inhibition of turning from the lateral position in mice; type: in vivo; settings: Mus musculus, iv; mice, turning from the lateral position; read-out: ED50
# Excerpt: (§2) In experiments on albino mice, the dose of Tercuronium injected into the tail vein, that inhibited the symptom of turning from the lateral position in 50 percent of mice (ED50) was 0.06 mcM/kg (18 experiments); and 50 percent of mice perished from paralysis of the respiratory muscles (LD50) following an injection of 0.09 mcM/kg of Tercuronium.
# [5] = Lethality by paralysis of respiratory muscles in mice; settings: mouse, in vivo, iv
# Excerpt: as §2
# respiration = test: Inhibition of respiration in narcotized and decerebrated cats (and rabbits); type: in vivo
# Excerpt: This developed simultaneously with the block of the nervomuscular conduction in the anterior tibial muscle. […] The same result was obtained in experiments on rabbits. The ratio of LD50 in experiments on rabbits and mice, as specified above, also provides data on the that Tercuronium produces on respiration.
# arterial pressure = test: Effect on arterial pressure in cats and rabbits; type: in vivo
# Experimental: Experiments were carried out on narcotized cats and rabbits (50 mg/kg of chloralose and 500 mg/kg urethane, intraperitoneally) and also on cats decerebrated at the quadrigeminal level. The blood pressure in the carotid artery was recorded with a mercury pressure gauge. The preparations were injected intravenously.
# When Tercuronium was given in a quantity ten times exceeding the myoparalytic dose (0.8 mcM/kg) an insignificant and transient reduction (10 to 20 mm Hg) of the blood pressure was observed. The animals (7 cats and 5 rabbits) tolerated injections of very large doses of Tercuronium, viz., 10-20 mcM/kg, which is 200 times higher than the myoparalytic dose. […] In all experiments, in 1 to 2 hours, the arterial pressure restored completely or was close to the initial level.
# [6] = Effect on sympathetic ganglia, third eyelid contraction in cats; type: in vivo; settings: cat, in vivo, iv, read-out: ganglioblocking dose as multiple of myoparalytic dose
# Experimental: Experiments were carried out on narcotized cats. A peripheral part of the sympathetic column on the neck was stimulated with electric pulses at 5 Hz. The duration of the stimulus was 1 msec, the amplitude 5 V. The contractions of the third eyelid (nictiating membrane) and the arterial (carotid) pressure were recorded with a mercury pressure gauge. We determined the intravenous dose of Tercuronium, α-tubocurarin and pancuronium that decreased the height of contraction of the third eyelid by 50 to 60 percent in conditions of prolonged stimulation of the sympathetic column.
# [7] = test system: nervomuscular conduction, vegetative ganglia, circulation; test: Overall conclusions from animal experiments; type: in vivo, animals
# Excerpt: The results of the pharmacological studies of the proposed muscle relaxant Tercuronium, as compared with the known muscle relaxants, enable us to make the following conclusions.
compound,measurement,setting,value
"C[N+](C)(C)CCOC(=O)CCC(=O)OCC[N+](C)(C)C [succinylcholine, dicholine ester of succinic acid]",duration of action in patients with hepatic dysfunction and low cholinesterase,[1]; common dose,can last for a period of a few hours
CC[N+](CC)(CC)CCOc1cccc(OCC[N+](CC)(CC)CC)c1OCC[N+](CC)(CC)CC [pyrolaxon],"histamine release, ganglia and circulatory effects",[1]; background,blocks parasympathetic ganglia and produces tachycardia
"CC(=O)O[C@H]1C[C@@H]2CC[C@@H]3[C@H](CC[C@@]4(C)[C@H]3C[C@H]([N+]3(C)CCCCC3)[C@@H]4OC(C)=O)[C@@]2(C)C[C@@H]1[N+]1(C)CCCCC1 [pancuronium, reference compound]",mean duration of effect,[2],nine
same,ED (95-100),"[2]; Felis catus, intravenous, 0.1 Hz, read-out: dose blocking nervomuscular conduction (95-100 percent)",0.04 ± 0.001 µmol/kg
same,multiple of dose at which restoration within the short periods could be attained,"[3]; cats, neostigmin",2-3 fold
same,time to complete restoration of contraction after neostigmin,"[3]; dose increased 4 to 5 times, six experiments",30 min
same,number of myoparalytic doses whose blocking effect is completely removed by neostigmin,"[3]; neostigmin 0.1 mg/kg intravenous, within five minutes",three
same,ED (head drop),"rabbits; Oryctolagus cuniculus, non-narcotized rabbits, read-out: head-drop dose (HDD)",0.018 ± 0.001 µmol/kg
same,"time of onset and duration of blocking effect, comparison",rabbits; all three preparations,the same
same,LD50,[4]; intravenous,0.026 µmol/kg
same,selectivity ratio,[4]; read-out: LD50 to HDD ratio,1.4
same,ED50,albino mice,0.042 µmol/kg
same,LD50,[5],0.062 µmol/kg
same,selectivity ratio,[5]; read-out: width of the muscle relaxing action (LD50/ED50),1.5
same,"inhibition of respiration by blocking doses, comparison",respiration; from LD50 to ED50 ratio,equally inhibit respiration
same,effect on respiration,respiration; narcotized and decerebrated cats,The same effect was observed
same,effect on arterial pressure of 20-fold dose,arterial pressure; 20-fold dose,moderately depressive
same,arterial pressure on doses that inhibit respiration,arterial pressure; active ventilation of the lungs,asphyxial rise in the arterial pressure
same,effect on arterial pressure of myoparalytic (complete block) dose,arterial pressure; artificial ventilation,the arterial pressure did not drop either
same,selectivity ratio,[6],30
same,arterial pressure and pulse rate,[7]; in vivo,"stable rise in the arterial pressure, which results in increased hemorrhage in surgical operations and in accelerated pulse rate"
same,"histamine, vegetative ganglia, blood pressure and heart frequency",[7]; myoparalytic dose,do not produce histamine or block vegetative ganglia
same,conditions for tracheal intubation,[1]; 0.15 mg/kg,favourable conditions for tracheal intubation are provided
same,duration of myoparalytic action,[1]; background,lasts for the same period of time as that of α-tubocurarin
same,fold less active than α-tubocurarin in blocking conduction in sympathetic ganglia,[1]; background,2.5 times
same,"histamine release, ganglia and circulatory effects",[1]; background,often accelerates the pulse rate and increases arterial pressure
same,removal of myoparalytic action by proserpin,[1]; background,"can be removed with proserpin, and cases with difficult decurarization occur less frequently than with α-tubocurarin"
same,"histamine release, ganglia and circulatory effects","[1]; background, listed as Pancuronium","does not induce production of histamine from tissues, nor does it lower arterial pressure"
